Data taken from patent US20230203043A1, “NOVEL IMIDAZOPYRAZINE DERIVATIVES” (Hoffmann-La Roche Inc., priority 2020, published 2023).
Counter-ions that a name gives are not always drawn. Like-named read-outs stand apart in the source and are kept apart here.

System: Acinetobacter baumannii ATCC17961
Test: Antimicrobial susceptibility testing: 90% growth inhibitory concentration (IC90) determination in Iso-Sensitest broth, OD600 growth
Format: cell-based
Conditions: Acinetobacter baumannii, ATCC17961, 16 h
Outline: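 Growth monitored at 600 nm every 20 min for 16 h at 35±2 °C, inoculum ~5×10^(5) CFU/ml in Iso-Sensitest medium. Compounds in 10-point twofold series, e.g. 50 to 0.097 μM final; 90% inhibitory concentration taken from log-phase growth.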

[1] = read-out: A. baumannii ATCC 17961 IC90 (uM), strain ATCC 17961, OD600 growth over 16 h

N#CCn1cc(-c2cnc3c(Nc4ccc(C(=O)N5CCN(CC(=O)N[C@H]6CCNC6)CC5)c(Cl)c4)nccn23)c(C(F)(F)F)n1 [Example 605, (S)-2-(4-(2-chloro-4-((3-(1-(cyanomethyl)-3-(trifluoromethyl)-1H-pyrazol-4-yl)imidazo[1,2-a]pyrazin-8-yl)amino)benzoyl)piperazin-1-yl)-N-(pyrrolidin-3-yl) acetamide formate]
IC90 (strain ATCC 17961, OD600 growth over 16 h, read-out: A. baumannii ATCC 17961 IC90): 0.496 µM

NCCCNC(=O)CN1CCN(C(=O)c2ccc(Nc3nccn4c(-c5cn(CC(F)F)nc5C(F)(F)F)cnc34)cc2Cl)CC1 [Example 606, N-(3-aminopropyl)-2-(4-(2-chloro-4-((3-(1-(2,2-difluoroethyl)-3-(trifluoromethyl)-1H-pyrazol-4-yl)imidazo[1,2-a]pyrazin-8-yl)amino)benzoyl)piperazin-1-yl)acetamide formate]
IC90 [1]: 0.303 µM

N#CCn1cc(-c2cnc3c(Nc4ccc(C(=O)N5CCN(CC(=O)N6CCNCC6)CC5)c(Cl)c4)nccn23)c(C(F)(F)F)n1 [Example 607, 2-(4-(8-((3-chloro-4-(4-(2-oxo-2-(piperazin-1-yl)ethyl)piperazine-1-carbonyl)phenyl)amino)imidazo[1,2-a]pyrazin-3-yl)-3-(trifluoromethyl)-1H-pyrazol-1-yl)acetonitrile formate]
IC90 [1]: 0.878 µM

O=C(CN1CCN(C(=O)c2ccc(Nc3nccn4c(-c5cn(CC(F)F)nc5C(F)(F)F)cnc34)cc2Cl)CC1)N1CCNCC1 [Example 608, 2-(4-(2-chloro-4-((3-(1-(2,2-difluoroethyl)-3-(trifluoromethyl)-1H-pyrazol-4-yl)imidazo[1,2-a]pyrazin-8-yl)amino)benzoyl)piperazin-1-yl)-1-(piperazin-1-yl) ethan-1-one formate]
IC90 [1]: 0.936 µM

CCc1cc(Nc2nccn3c(-c4cn(C5CCC5)nc4C(F)(F)F)cnc23)ccc1C(=O)NCCOCCCN [Example 609, N-(2-(3-aminopropoxy)ethyl)-4-((3-(1-cyclobutyl-3-(trifluoromethyl)-1H-pyrazol-4-yl)imidazo[1,2-a]pyrazin-8-yl)amino)-2-ethylbenzamide formate]
IC90 [1]: 0.086 µM

CCc1cc(Nc2nccn3c(-c4cn(CCF)nc4C(F)(F)F)cnc23)ccc1C(=O)NCCOCCCN [Example 610, N-(2-(3-aminopropoxy)ethyl)-2-ethyl-4-((3-(1-(2-fluoroethyl)-3-(trifluoromethyl)-1H-pyrazol-4-yl)imidazo [1,2-a]pyrazin-8-yl)amino)benzamide formate]
IC90 [1]: 0.099 µM

CCc1cc(Nc2nccn3c(-c4cn(CC(F)F)nc4C(F)(F)F)cnc23)ccc1C(=O)NCCNC(=O)CN [Example 611, N-(2-(2-aminoacetamido)ethyl)-4-((3-(1-(2,2-difluoroethyl)-3-(trifluoromethyl)-1H-pyrazol-4-yl)imidazo[1,2-a]pyrazin-8-yl)amino)-2-ethylbenzamide formate]
IC90 [1]: 0.11 µM

CCc1cc(Nc2nccn3c(-c4cn(CC#N)nc4C(F)(F)F)cnc23)ccc1C(=O)NCCOCCCN [Example 612, N-(2-(3-aminopropoxy)ethyl)-4-((3-(1-(cyanomethyl)-3-(trifluoromethyl)-1H-pyrazol-4-yl)imidazo[1,2-a]pyrazin-8-yl)amino)-2-ethylbenzamide formate]
IC90 [1]: 0.1 µM

CCc1cc(Nc2nccn3c(-c4c[nH]nc4C(F)(F)F)cnc23)ccc1C(=O)NCCOCCCN [Example 613, N-(2-(3-aminopropoxy)ethyl)-2-ethyl-4-((3-(3-(trifluoromethyl)-1H-pyrazol-4-yl)imidazo [1,2-a]pyrazin-8-yl)amino)benzamide formate]
IC90 [1]: 0.105 µM

CCc1cc(Nc2nccn3c(-c4cn(CC=C(C)C)nc4C(F)(F)F)cnc23)ccc1C(=O)NCCOCCN [Example 614, N-(2-(2-aminoethoxy)ethyl)-2-ethyl-4-((3-(1-(3-methylbut-2-en-1-yl)-3-(trifluoromethyl)-1H-pyrazol-4-yl)imidazo[1,2-a]pyrazin-8-yl)amino)benzamide formate]
IC90 [1]: 0.11 µM
